Measured values taken from US20240391956A1, “STAPLED PEPTIDES AND METHODS THEREOF” (FOG PHARMACEUTICALS, INC., priority 2023, published 2024).
Read-outs that look alike come from different tables or passages of the source. *1 amine or outer side, *2 acyl side, *3 side chain or, on linkers, in order; H or OH if unused. Where a SMILES comes first, the peptide text is derived from it. Bridges are numbered along the chain shown (N, C = ends). [ ]: non-standard residue; d: D form. Phenylene(1,4-NHCOCH2)2 = O=C(C[*:1])Nc1ccc(NC(=O)C[*:2])cc1; dNle = CCCC[C@@H](N)C(=O)O

Columns and labels:
MDM2 (residues 25-109) = biological target: T1, MDM2 (residues 25-109) (Homo sapiens, UniProt Q00987); experiment: SPR binding to immobilized biotinylated MDM2 25-109 (Biacore 8K)
T1 construct: MDM2 (residues 25-109) with an N-terminal 6×His-yBBr-TEV tag was recombinantly expressed in E. coli; made in house; host or cells: E. coli BL21 CodonPlus
T1 sequence (Q00987 25-109): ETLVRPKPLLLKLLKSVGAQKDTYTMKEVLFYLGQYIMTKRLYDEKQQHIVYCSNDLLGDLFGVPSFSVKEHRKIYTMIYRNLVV
Experimental: SPR experiments were performed on a Biacore 8K (Cytiva) instrument at 25° C. in 1×HBS-P+ buffer (Cytiva) with 1% DMSO. A SA Series S sensor chip was docked and pre-conditioned with three injections of 50 mM NaOH/1 M NaCl to remove unbound streptavidin from the surface. Biotinylated MDM2^25-109 were diluted to 2 μg/mL in running buffer and immobilized to channels 1 through 8 at 5 μL/min for 71 sec for a final immobilization level of ˜390 RU. Peptides were diluted to 5 μM in running buffer then serially diluted 2-fold for a total of seven concentrations with one blank (7-point two-fold peptide dilution series with top concentration=5 μM and bottom concentration=78 nM). Compounds were injected over the immobilized and reference surfaces at 30 μL/min for 60 sec and then allowed to dissociate for 180 sec without surface regeneration (N=1). Data was analyzed using Biacore Insight Evaluation software (Cytiva). Sensorgrams were double referenced, with most of them fitted to a 1:1 steady state affinity model, with a few fitted with both steady state affinity model and kinetics model.
MDM2 expression: MDM2 (residues 25-109) with an N-terminal 6×His-yBBr-TEV tag was recombinantly expressed in E. coli BL21 CodonPlus cells (Agilent) from pET-derived expression vectors (Novagen) (“6×His” disclosed as SEQ ID NO: 13). The cells were induced at OD600=0.6 with 1 mM isopropyl β-D-1-thiogalactopyranoside (IPTG) for 4 hours at 37° C., then harvested and resuspended in 25 mM Tris-HCl pH 7.5, 300 mM NaCl, 10% glycerol, 1 mM PMSF. For purification, the pellet was lysed with a tip sonicator, and pelleted at 22,000×g for 30 minutes at 4° C. The pellets were washed with 20 mM Tris-HCl pH 8.0, 150 mM NaCl, 1 M urea, 1.0% triton X-100 three times, and the inclusion body was dissolved in 20 mM Tris-HCl pH 8.0, 150 mM NaCl, 8 M urea, and 2 mM ß-mercaptoethanol (ß-me). The supernatant was purified with Ni-NTA resin (Qiagen), eluting with 20 mM Tris-HCl pH 8.0, 150 mM NaCl, 8 M urea, 2 mM ß-me, and 250 mM imidazole. Protein elutes were diluted to ˜0.1 mg/mL and dialyzed into buffers containing 10 mM Tris-HCl pH 8.0, 150 mM NaCl, 2 mM ß-me, with 4, 2, 1, or 0 M urea, at 4° C. for 8 hours for each urea gradient. Urea-free proteins were concentrated with Amicon spin filters (Millipore Sigma) to ˜1 mg/mL and biotinylated via the yBBr reaction according to reported procedures (e.g., reported in Yin, J. et al. Genetically encoded short peptide tag for versatile protein labeling by Sfp phosphopantetheinyl transferase. Proceedings of the National Academy of Sciences 102, 15815-15820 (2005)). Biotinylated proteins were pooled, concentrated, and loaded onto a Superdex™ 10/300 75 pg (Cytiva) SEC column and eluted in 20 mM HEPES pH 7.0, 200 mM NaCl, 5% glycerol, 0.5 mM tris(2-carboxyethyl) phosphine (TCEP). Fractions containing pure protein were collected, pooled, concentrated to ˜1 mg/mL and stored at −80° C. In some embodiments, such MDM2 preparation were utilized in biochemical assays.

[1] = biological target: T2, CHIP23-303 recombinant protein (Homo sapiens, UniProt Q9UNE7); experiment: Competition fluorescence polarization with CHIP23-303 and HSP70-derived probe 5FAM-bAla-[…]; format: binding; conditions: competition FP, 400 nM CHIP23-303, 20 nM probe, 1 hour at room temperature; read-out: Measured KD
T2 construct: 6xHis (N, cleaved yes); TEV site (N, cleaved yes); made in house; host or cells: E. coli BL21 CodonPlus
T2 sequence (Q9UNE7 23-303): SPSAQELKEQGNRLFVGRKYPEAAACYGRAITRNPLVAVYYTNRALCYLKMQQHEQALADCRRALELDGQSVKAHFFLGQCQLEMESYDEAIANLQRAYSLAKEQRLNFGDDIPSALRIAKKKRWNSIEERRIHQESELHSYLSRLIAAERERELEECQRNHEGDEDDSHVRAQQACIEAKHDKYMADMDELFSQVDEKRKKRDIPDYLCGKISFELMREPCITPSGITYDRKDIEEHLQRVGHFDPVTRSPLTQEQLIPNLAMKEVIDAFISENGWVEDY
Experimental: For the competition FP of CHIP, stapled peptides at 10 mM in DMSO were serially diluted 1:3 in DMSO for a total of 11 concentrations using a Mosquito LV (SPT Labtech), then diluted 1000-fold in buffer (1×HBS-P+, Cytiva) in duplicate by the Mosquito LV (SPT Labtech) into a black polystyrene 384-well plate (Corning) (11-point three-fold peptide dilution series with top concentration=10 μM). The assay was performed with 400 nM CHIP23-303 recombinant protein as target, and 20 nM BCHIP-binding peptide as probe (5FAM-bAla-[…] (SEQ ID NO: 18), derived from HSP70). The plate was incubated and protected from light for 1 hour at room temperature prior to reading. Reads were performed on a CLARIOstar plate reader (BMG Labtech) with excitation at 485 nm, emission at 525 nm, and cutoff at 504 nm. Data were fitted to a 1:1 binding model with Hill slope using an in-house script.
In some embodiments, CHP polypeptide was prepared as follows: CHIP (residues 23-303 for competition FP and 23-154 for crystallography) with an N-terminal 6×His-TEV tag was recombinantly expressed in E. coli BL21 CodonPlus cells (Agilent) from a pET21b-derived expression vector (Novagen) (“6×His” disclosed as SEQ ID NO: 13). The cells were induced at OD600=0.6 with 1 mM IPTG for 4 hours at 37° C., then harvested and resuspended in 50 mM Tris-HCl pH 8.0, 500 mM NaCl, 10 mM imidazole, 10% glycerol, and 10 mM ß-me. For purification, the pellet was lysed with a tip sonicator with power level set at 400 W, 3 seconds on and 3 seconds off for 20 min, pelleted at 22,000×g for 30 minutes at 4° C. The supernatant was purified with Ni-NTA resin (Qiagen), eluting with 250 mM imidazole. Eluted proteins were pooled, concentrated, and TEV-cleaved by adding TEV protease at a ratio of 1:10 protease to protein and incubated overnight at 4° C. TEV-cleaved proteins were loaded onto a Superdex™ 10/300 75 pg (Cytiva) SEC column, and eluted in 50 mM HEPES, pH 8.0, 150 mM NaCl, 10% glycerol, 2 mM DTT. Fractions containing pure protein were collected, pooled, concentrated to 30 mg/mL and stored at −80° C. […]

Row | SMILES | Kd (MDM2 (residues 25-109)) [nM] | other results
1 | CC(=O)N[C@H](CC(=O)O)C(=O)N1CCC[C@@H]1C(=O)N[C@H](C)C(=O)N[C@H](Cc1c[nH]c2ccccc12)C(=O)N[C@H](CC(N)=O)C(=O)N[C@H](Cc1c[nH]cn1)C(=O)N[C@@H]1CSCC(=O)Nc2ccc(cc2)NC(=O)CSC[C@H](C(=O)N[C@H](CO)C(=O)N[C@H](CCC(=O)O)C(=O)N[C@@H](C(N)=O)C(C)C)NC(=O)[C@@H](C(C)C)NC(=O)[C@@H](Cc2ccccc2)NC(=O)[C@@H](C)NC(=O)[C@@H](C)NC(=O)[C@@H](Cc2ccc(O)cc2)NC(=O)[C@@H](CCC(=O)O)NC1=O [H102, Ac-dpawnhceyaafvcsev-NH2] (Ac-[dD][dP][dA][dW][dN][dH][dC][dE][dY][dA][dA][dF][dV][dC][dS][dE][dV]-NH2; linker 7-14 via Phenylene(1,4-NHCOCH2)2) | 2700 | 
2 | CCCC[C@H]1NC(=O)[C@@H](C)NC(=O)[C@@H](C)NC(=O)[C@@H](CCC(=O)O)NC(=O)[C@@H](CCCC)NC(=O)[C@H](NC(=O)[C@@H](CCC(=O)O)NC(=O)[C@@H](Cc2ccc(O)cc2)NC(=O)[C@@H](Cc2c[nH]c3ccccc23)NC(=O)[C@@H](C)NC(=O)[C@H]2CCCN2C(=O)[C@@H](CC(=O)O)NC(C)=O)CSCC(=O)Nc2ccc(cc2)NC(=O)CSC[C@H](C(=O)N[C@H](CCC(N)=O)C(=O)N[C@H](CCC(N)=O)C(=O)N[C@@H](C(N)=O)C(C)C)NC(=O)[C@@H](CCCC)NC1=O [H103, Ac-dpawyecm*eaam*m*cqqv-NH2] (Ac-[dD][dP][dA][dW][dY][dE][dC][dNle][dE][dA][dA][dNle][dNle][dC][dQ][dQ][dV]-NH2; linker 7-14 via Phenylene(1,4-NHCOCH2)2) | 880 | 
3 | CCCC[C@H]1NC(=O)[C@@H](CC(=O)O)NC(=O)[C@@H](C)NC(=O)[C@@H](C)NC(=O)[C@@H](CC(C)C)NC(=O)[C@@H](CC(N)=O)NC(=O)[C@H](NC(=O)[C@@H](CCC(=O)O)NC(=O)[C@H](NC(=O)[C@@H](CC(C)C)NC(=O)[C@@H](C)NC(=O)[C@H]2CCCN2C(=O)[C@@H](CC(=O)O)NC(C)=O)C(C)C)CSCC(=O)Nc2ccc(cc2)NC(=O)CSC[C@H](C(=O)N[C@H](Cc2c[nH]cn2)C(=O)N[C@H](Cc2ccccc2)C(=O)N[C@H](Cc2ccc(O)cc2)C(N)=O)NC1=O [H104, Ac-dpalvecnlaadm*chfy-NH2] (Ac-[dD][dP][dA][dL][dV][dE][dC][dN][dL][dA][dA][dD][dNle][dC][dH][dF][dY]-NH2; linker 7-14 via Phenylene(1,4-NHCOCH2)2) | 1800 | 
4 | CCCC[C@@H](NC(=O)[C@@H](CCC(N)=O)NC(=O)[C@@H](CC(C)C)NC(=O)[C@H]1CSCC(=O)Nc2ccc(cc2)NC(=O)CSC[C@@H](NC(=O)[C@H](NC(=O)[C@@H](C)NC(=O)[C@@H](Cc2c[nH]c3ccccc23)NC(=O)[C@@H](C)NC(=O)[C@H]2CCCN2C(=O)[C@@H](CC(=O)O)NC(C)=O)[C@H](C)O)C(=O)N[C@H](CCCC)C(=O)N[C@H](CC(=O)O)C(=O)N[C@H](C)C(=O)N[C@H](C)C(=O)N[C@H](CC(C)C)C(=O)N[C@H](CC(N)=O)C(=O)N1)C(N)=O [H106, Ac-dpawatcm*daalnclqm*- NH2] (Ac-[dD][dP][dA][dW][dA][dT][dC][dNle][dD][dA][dA][dL][dN][dC][dL][dQ][dNle]-NH2; linker 7-14 via Phenylene(1,4-NHCOCH2)2) | 1800 | 
5 | CC(=O)N[C@H](CC(=O)O)C(=O)N1CCC[C@@H]1C(=O)N[C@H](C)C(=O)N[C@H](CO)C(=O)N[C@H](CCCNC(=N)N)C(=O)N[C@H](CC(N)=O)C(=O)N[C@@H]1CSCC(=O)Nc2ccc(cc2)NC(=O)CSC[C@H](C(=O)N[C@H](CCC(=O)O)C(=O)N[C@H](Cc2ccc(O)cc2)C(=O)N[C@H](Cc2c[nH]c3ccccc23)C(N)=O)NC(=O)[C@@H](CC(C)C)NC(=O)[C@@H](Cc2c[nH]cn2)NC(=O)[C@@H](C)NC(=O)[C@@H](C)NC(=O)[C@@H](Cc2c[nH]c3ccccc23)NC(=O)[C@@H](CCC(N)=O)NC1=O [H107, Ac-dpasrncqwaahlceyw-NH2] (Ac-[dD][dP][dA][dS][dR][dN][dC][dQ][dW][dA][dA][dH][dL][dC][dE][dY][dW]-NH2; linker 7-14 via Phenylene(1,4-NHCOCH2)2) |  | Kd (MDM2 (residues 25-109); SPR, 25° C., 7-point two-fold dilution, top concentration 5 μM, N=1, read-out: Measured KD): 1100 nM
6 | CCCC[C@H]1NC(=O)[C@@H](C)NC(=O)[C@@H](C)NC(=O)[C@@H](CCCC)NC(=O)[C@@H](C(C)C)NC(=O)[C@H](NC(=O)[C@@H](CCC(N)=O)NC(=O)[C@@H](Cc2c[nH]c3ccccc23)NC(=O)[C@@H](CO)NC(=O)[C@@H](C)NC(=O)[C@H]2CCCN2C(=O)[C@@H](CC(=O)O)NC(C)=O)CSCC(=O)Nc2ccc(cc2)NC(=O)CSC[C@H](C(=O)N[C@@H](C(=O)N[C@H](CC(C)C)C(=O)N[C@H](CC(=O)O)C(N)=O)C(C)C)NC(=O)[C@@H](CC(=O)O)NC1=O [H109, Ac-dpaswqcvm*aam*dcvld-NH2] (Ac-[dD][dP][dA][dS][dW][dQ][dC][dV][dNle][dA][dA][dNle][dD][dC][dV][dL][dD]-NH2; linker 7-14 via Phenylene(1,4-NHCOCH2)2) | 2400 | 
7 | CC[C@@H](C)[C@@H](NC(=O)[C@@H](CC(N)=O)NC(=O)[C@@H](Cc1ccc(O)cc1)NC(=O)[C@H]1CSCC(=O)Nc2ccc(cc2)NC(=O)CSC[C@@H](NC(=O)[C@@H](CC(=O)O)NC(=O)[C@@H](CCC(=O)O)NC(=O)[C@@H](Cc2c[nH]c3ccccc23)NC(=O)[C@H]2CCCN2C(C)=O)C(=O)N[C@H](C)C(=O)N[C@H](Cc2c[nH]c3ccccc23)C(=O)N[C@H](Cc2ccccc2)C(=O)N[C@H](C)C(=O)N[C@H](Cc2c[nH]c3ccccc23)C(=O)N[C@H](C)C(=O)N1)C(N)=O [H201, Ac-pwedcawfawacyni-NH2] (Ac-[dP][dW][dE][dD][dC][dA][dW][dF][dA][dW][dA][dC][dY][dN][dI]-NH2; linker 5-12 via Phenylene(1,4-NHCOCH2)2) |  | Kd [1]: 470 nM
